Experimental data: BindingDB's records for doi:10.1021/np0604580 (University of California - San Diego, 2007)

Target: T1, Ornithine decarboxylase (Homo sapiens, UniProt P11926)
T1 sequence (P11926 whole entry): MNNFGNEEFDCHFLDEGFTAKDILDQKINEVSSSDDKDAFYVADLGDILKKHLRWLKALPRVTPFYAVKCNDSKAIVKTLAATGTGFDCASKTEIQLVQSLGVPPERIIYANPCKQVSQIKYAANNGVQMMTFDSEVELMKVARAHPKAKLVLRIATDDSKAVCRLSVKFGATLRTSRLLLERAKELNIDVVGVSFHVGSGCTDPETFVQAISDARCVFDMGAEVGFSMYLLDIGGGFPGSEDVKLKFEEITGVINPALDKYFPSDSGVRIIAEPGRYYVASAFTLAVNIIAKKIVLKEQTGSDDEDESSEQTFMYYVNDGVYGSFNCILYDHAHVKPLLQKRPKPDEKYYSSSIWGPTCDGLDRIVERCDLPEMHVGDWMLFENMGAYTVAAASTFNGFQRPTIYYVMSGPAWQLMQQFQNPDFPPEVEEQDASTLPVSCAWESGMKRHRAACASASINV
Experiment: Inhibition of TPA-induced ornithine decarboxylase expressed in T24 cells

IC50 | SMILES
5.05 µM | C/C(=C/C=C/[C@H](C)[C@H](O)[C@@H](C)[C@@H](O)[C@@H](C)[C@@H]1O[C@@]2(C)CC[C@@H](O2)[C@H]1C)C(N)=O [SALINIKETAL A]
18.9 µM | C[C@H]([C@H](O)[C@H](C)[C@@H](O)[C@@H](C)/C=C/C=C(/CO)C(N)=O)[C@@H]1O[C@@]2(C)CC[C@@H](O2)[C@H]1C [SALINIKETAL B]
